From patent publication US20150181873A1, “HERBICIDE-RESISTANT SUNFLOWER PLANTS, POLYNUCLEOTIDES ENCODING HERBICIDE=RESISTANT ACETO HYDROXY ACID SYNTHASE LARGE SUBUNIT PROTEINS, AND METHODS OF USE” (NIDERA S.A., priority 2013, published 2015)
Values joined by “and” are separate entries in the source; they are usually repeats but may differ in a detail not shown here. Equal values may be shown once.

Legend:
Format in all cases: in vivo, Helianthus annuus
[1] = system: sunflower genotypes carrying the A205V mutation event; assay: Greenhouse imazapir dose response, A205V genotypes together; details: 14 DAT; for biomass accumulation, Dif with control / plant height, Dif with Control / root dry weight, Dif with control: A205V mean; for biomass accumulation, % of untreated, Mean / root dry weight, % of untreated, Mean / plant height, % of untreated, Mean: six A205V genotypes; for Phytotoxicity Index, Mean: three A205V genotypes
Procedure: (§1) A greenhouse study was conducted to quantify and contrast the imazapir sensivity of the mutants A122T and A205V in different genetic backgrounds at the whole plant level in sunflower. Seeds of the different sunflower lines that were used in this study were obtained under field conditions.
(§2) Seeds were sown in Petri dishes and, after germination, plantlets were transplanted to pots of 10 cm of diameter in a potting media consisting of equal parts of vermiculite, soil and sand. Plants were grown in a greenhouse under natural light conditions supplemented with 400 W sodium halide lamps to provide a 16 hrs daylength. Day/night temperatures were 25 and 20° C., respectively. At the V2 stage 10 plants of each genotype were randomly assigned to each treatment consisting of […] imazapir doses (0, 40, 80, 160, 240, 320, 400 and 480 g ai/ha), and a zero-time biomass determination. Experiment was arranged as a randomized block design with a full factorial (sunflower line×treatment) arrangement of treatments and 10 replications.
(§3) On the day of herbicide application ten plants of each genotype were cut at the cotyledonal node and dried at 60° C. for 48 hrs zero-time for dried weight determination. […] Height was determined as the distance between the cotyledonal node and the apex of each plant. For root biomass determination, each plant was taken from the pot and the potting media was washed out from the roots. Above ground biomass data from each line were converted to biomass accumulation after application by subtracting the appropriate average zero-time biomass from each sample. Dry biomass data were converted to percentages of the untreated control plants within each line to allow direct comparisons between groups.

[2] = system: sunflower restorer line TH12 (A122T); assay: Greenhouse imazapir dose response, TH12; details: 14 DAT
Procedure: as §1, §2, §3

[3] = system: sunflower hybrid TH9 (A205V); assay: Greenhouse imazapir dose response, TH9; details: 14 DAT
Procedure: as §1, §2, §3

[4] = system: sunflower hybrid TH1 (A205V); assay: Greenhouse imazapir dose response, TH1; details: 14 DAT
Procedure: as §1, §2, §3

## CC(C)C1(C)N=C(c2ncccc2C(=O)O)NC1=O (centres unmarked) [Imazapyr, imazapyr]
[1]; 0.5x (40 g ai/ha)
  biomass accumulation, Dif with control: 5.5%
  plant height, Dif with Control: 5.6%
  root dry weight, Dif with control: 12.8%
  biomass accumulation, % of untreated, Mean: 94.5%
  root dry weight, % of untreated, Mean: 87.2%
  Phytotoxicity Index, Mean: 0
[1]; 1x (80 g ai/ha)
  biomass accumulation, Dif with control: 17.8%
  plant height, Dif with Control: 10.8%
  root dry weight, Dif with control: 29.2%
  biomass accumulation, % of untreated, Mean: 82.2%
  root dry weight, % of untreated, Mean: 70.8%
  Phytotoxicity Index, Mean: 0
[1]; 2x (160 g ai/ha)
  biomass accumulation, Dif with control: 38.4%
  plant height, Dif with Control: 30.8%
  root dry weight, Dif with control: 49.4%
  biomass accumulation, % of untreated, Mean: 61.6%
  plant height, % of untreated, Mean: 69.2%
  root dry weight, % of untreated, Mean: 50.6%
  Phytotoxicity Index, Mean: 2.2
[1]; 3x (240 g ai/ha)
  biomass accumulation, Dif with control: 52.4%
  plant height, Dif with Control: 49.6%
  root dry weight, Dif with control: 60.8%
  biomass accumulation, % of untreated, Mean: 47.6%
  plant height, % of untreated, Mean: 50.4%
  root dry weight, % of untreated, Mean: 39.2%
  Phytotoxicity Index, Mean: 5.1
[1]; 4x (320 g ai/ha)
  biomass accumulation, Dif with control: 64.6%
  plant height, Dif with Control: 66.3%
  root dry weight, Dif with control: 68.9%
  biomass accumulation, % of untreated, Mean: 35.4%
  plant height, % of untreated, Mean: 33.7%
  root dry weight, % of untreated, Mean: 31.1%
  Phytotoxicity Index, Mean: 7.4
[1]; 5x (400 g ai/ha)
  biomass accumulation, Dif with control: 67.6%
  plant height, Dif with Control: 68.0%
  root dry weight, Dif with control: 69.3%
  biomass accumulation, % of untreated, Mean: 32.4%
  plant height, % of untreated, Mean: 32.0%
  root dry weight, % of untreated, Mean: 30.7%
  Phytotoxicity Index, Mean: 8.2
[1]; 6x (480 g ai/ha)
  biomass accumulation, Dif with control: 70.0%
  root dry weight, Dif with control: 75.6%
  biomass accumulation, % of untreated, Mean: 30.0%
  plant height, % of untreated, Mean: 30.2%
  root dry weight, % of untreated, Mean: 24.4%
  Phytotoxicity Index, Mean: 8.2
[1]; 6x (480 g ai/ha), listed as imazapir
  plant height, Dif with Control: 68.9% and 69.8%
[2]; 0.5x (40 g ai/ha)
  Phytotoxicity Index: 0.0
  biomass accumulation, % of untreated: 100.0%
  plant height, % of untreated: 100.0%
  root dry weight, % of untreated: 99.4%
[2]; 1x (80 g ai/ha)
  Phytotoxicity Index: 0.0
  biomass accumulation, % of untreated: 99.1%
  plant height, % of untreated: 100.0%
  root dry weight, % of untreated: 100%
[2]; 2x (160 g ai/ha)
  Phytotoxicity Index: 0.0
  biomass accumulation, % of untreated: 97.0%
  plant height, % of untreated: 101.8%
  root dry weight, % of untreated: 100%
[2]; 3x (240 g ai/ha)
  Phytotoxicity Index: 0.0
  biomass accumulation, % of untreated: 96.1%
  plant height, % of untreated: 97.0%
  root dry weight, % of untreated: 100.0%
[2]; 4x (320 g ai/ha)
  Phytotoxicity Index: 0.0
  biomass accumulation, % of untreated: 84.3%
  plant height, % of untreated: 92.1%
  root dry weight, % of untreated: 74.5%
[2]; 5x (400 g ai/ha)
  Phytotoxicity Index: 0.0
  biomass accumulation, % of untreated: 77.5%
  plant height, % of untreated: 84.8%
  root dry weight, % of untreated: 65.0%
[2]; 6x (480 g ai/ha)
  Phytotoxicity Index: 0.5
  biomass accumulation, % of untreated: 70.7%
  plant height, % of untreated: 79.8%
  root dry weight, % of untreated: 57.8%
[3]; 0.5x (40 g ai/ha)
  Phytotoxicity Index: 0
  biomass accumulation, % of untreated: 91.7%
  plant height, % of untreated: 100.0%
  root dry weight, % of untreated: 81.5%
[3]; 1x (80 g ai/ha)
  Phytotoxicity Index: 0
  biomass accumulation, % of untreated: 81.7%
  plant height, % of untreated: 100.0%
  root dry weight, % of untreated: 84.9%
[3]; 2x (160 g ai/ha)
  Phytotoxicity Index: 1.6
  biomass accumulation, % of untreated: 54.7%
  plant height, % of untreated: 78.9%
  root dry weight, % of untreated: 58.8%
[3]; 3x (240 g ai/ha)
  Phytotoxicity Index: 5.1
  biomass accumulation, % of untreated: 35.7%
  plant height, % of untreated: 50.0%
  root dry weight, % of untreated: 34.1%
[3]; 4x (320 g ai/ha)
  Phytotoxicity Index: 8.4
  biomass accumulation, % of untreated: 25.3%
  plant height, % of untreated: 38.1%
  root dry weight, % of untreated: 27.3%
[3]; 5x (400 g ai/ha)
  Phytotoxicity Index: 8.9
  biomass accumulation, % of untreated: 19.8%
  plant height, % of untreated: 31.8%
  root dry weight, % of untreated: 29.9%
[3]; 6x (480 g ai/ha)
  Phytotoxicity Index: 8.9
  biomass accumulation, % of untreated: 19.5%
  plant height, % of untreated: 34.7%
  root dry weight, % of untreated: 22.1%
[4]; 0.5x (40 g ai/ha)
  Phytotoxicity Index: 0
  biomass accumulation, % of untreated: 95.0%
  plant height, % of untreated: 99.5%
  root dry weight, % of untreated: 79.4%
[4]; 1x (80 g ai/ha)
  Phytotoxicity Index: 0
  biomass accumulation, % of untreated: 89.6%
  plant height, % of untreated: 99.5%
  root dry weight, % of untreated: 70.7%
[4]; 2x (160 g ai/ha)
  Phytotoxicity Index: 1.8
  biomass accumulation, % of untreated: 75.5%
  plant height, % of untreated: 78.6%
  root dry weight, % of untreated: 69.6%
[4]; 3x (240 g ai/ha)
  Phytotoxicity Index: 6.4
  biomass accumulation, % of untreated: 60.4%
  plant height, % of untreated: 48.4%
  root dry weight, % of untreated: 42.3%
[4]; 4x (320 g ai/ha)
  Phytotoxicity Index: 8.0
  biomass accumulation, % of untreated: 46.5%
  plant height, % of untreated: 28.9%
  root dry weight, % of untreated: 38.6%
[4]; 5x (400 g ai/ha)
  Phytotoxicity Index: 8.9
  biomass accumulation, % of untreated: 38.9%
  plant height, % of untreated: 25.3%
  root dry weight, % of untreated: 34.7%
[4]; 6x (480 g ai/ha)
  Phytotoxicity Index: 9.0
  biomass accumulation, % of untreated: 33.9%
  plant height, % of untreated: 27.1%
  root dry weight, % of untreated: 23.1%
